“And” between values parts separate entries of the source, which are not always exact repeats. Identical values can stand only once. Like-named read-outs stand apart in the source and are kept apart here. Marks after values point to notes of the source that are not given here.
Key:
[1] = system: IFNγ-induced NO production in RAW 264.7 cells; assay: Nitric oxide suppression assay (IFNγ-induced NO production, Griess nitrite readout); format: cell-based, mouse; settings: for IC50: 2 h pretreatment, 20 ng/mL interferon gamma 24 h, average of trials per footnote, read-out: NO IC50
[2] = system: AREc32 reporter cell line (luciferase reporter under eight copies of the rat GSTA2 ARE sequence); assay: AREc32 luciferase reporter activation; format: cell-based, human
[3] = Mus musculus, RAW264.7, RAW 264.7 cells

SMILES | NO IC50 Rel. to RTA 402 [1] | IC50 [1, 3] | AREc32 EC2X Relative to RTA 402 (Mean ± SD) [2] | EC (2-fold) ([2]; Homo sapiens, Arec32, concentration that increases the luminescence signal 2-fold above vehicle, 19 h treatment, read-out: AREc32 EC2X (Mean ± SD)) | IC50 ([1]; RAW 264.7 cells)
CC1(C)CC[C@]2(N)CC[C@]3(C)[C@H](C(=O)C=C4[C@@]5(C)C=C(C#N)C(=O)C(C)(C)[C@@H]5CC[C@]43C)[C@@H]2C1 [CC4, reference compound] | 2.41 fold and 2.41 ± 0.49^b fold | 3.75 nM | – | – | –
CC(=O)N[C@]12CCC(C)(C)C[C@H]1[C@H]1C(=O)C=C3[C@@]4(C)C=C(C#N)C(=O)C(C)(C)[C@@H]4CC[C@@]3(C)[C@]1(C)CC2 [Compound 63170, reference compound] | 4.95 fold | 8.45 nM | – | – | –
CC1(C)CC[C@]2(CNC(=O)C(F)F)CC[C@]3(C)[C@H](C(=O)C=C4[C@@]5(C)C=C(C#N)C(=O)C(C)(C)[C@@H]5CC[C@]43C)[C@@H]2C1 [Compound T63] | 0.36 ± 0.11^d fold | 1.48 ± 0.54 nM | 0.4^e fold | 0.004 µM | –
CC1(C)CC[C@]2(n3cc[nH]c3=O)CC[C@]3(C)[C@H](C(=O)C=C4[C@@]5(C)C=C(C#N)C(=O)C(C)(C)[C@@H]5CC[C@]43C)[C@@H]2C1 [Compound T45] | 4.02 ± 0.61^d fold | 16.4 ± 2.94 nM | – | – | –
CC1(C)CC[C@]2(NC(=O)C3CC3)CC[C@]3(C)[C@H](C(=O)C=C4[C@@]5(C)C=C(C#N)C(=O)C(C)(C)[C@@H]5CC[C@]43C)[C@@H]2C1 [Compound 63236, reference compound] | 57.25 fold | – | – | – | 143 nM
CC1(C)CC[C@]2(CN3CC(O)C3)CC[C@]3(C)C(O)(C(=O)C=C4[C@@]5(C)C=C(C#N)C(=O)C(C)(C)[C@@H]5CC[C@]43C)[C@@H]2C1 (some centres unmarked) [Compound T64] | 1.64 ± 0.16^e fold | 3.82 ± 1.76 nM | – | – | –
CNC(=O)N[C@]12CCC(C)(C)C[C@H]1[C@H]1C(=O)C=C3[C@@]4(C)C=C(C#N)C(=O)C(C)(C)[C@@H]4CC[C@@]3(C)[C@]1(C)CC2 [Compound 63172, reference compound] | 7.73 fold | 21.6 nM | – | – | –
CC1(C)CC[C@]2(N(NC(=O)OC(C)(C)C)C(=O)OC(C)(C)C)CC[C@]3(C)[C@H](C(=O)C=C4[C@@]5(C)C=C(C#N)C(=O)C(C)(C)[C@@H]5CC[C@]43C)[C@@H]2C1 [Compound T55] | 17.42 ± 0.43^e fold | 68.9 ± 10 nM | – | – | –
C=CC(=O)N[C@]12CCC(C)(C)C[C@H]1[C@H]1C(=O)C=C3[C@@]4(C)C=C(C#N)C(=O)C(C)(C)[C@@H]4CC[C@@]3(C)[C@]1(C)CC2 [Compound 63183, reference compound] | 1.35 fold | 4 nM | – | – | 2.39 nM
CC1(C)CC[C@]2(c3nn[nH]n3)CC[C@]3(C)[C@H](C(=O)C=C4[C@@]5(C)C=C(C#N)C(=O)C(C)(C)[C@@H]5CC[C@]43C)[C@@H]2C1 [Compound 63229, reference compound] | >75.85 fold | > 200 nM | – | – | –
CC1(C)CC[C@]2(n3ccc(C(F)(F)F)n3)CC[C@]3(C)[C@H](C(=O)C=C4[C@@]5(C)C=C(C#N)C(=O)C(C)(C)[C@@H]5CC[C@]43C)[C@@H]2C1 [Compound T60] | 11.32 ± 1.49^e fold | 45.1 ± 10.6 nM | – | – | –
C[C@@H]1C(=O)C(C#N)=C[C@]2(C)C3=CC(=O)[C@@H]4[C@@H]5CC(C)(C)CC[C@]5(NC(=O)C5CC5)CC[C@@]4(C)[C@]3(C)CC[C@@H]12 [Compound 63866, reference compound] | 1.16 fold | 1.43 nM | – | – | –
CC1(C)CC[C@]2(n3nccc3C(F)(F)F)CC[C@]3(C)[C@H](C(=O)C=C4[C@@]5(C)C=C(C#N)C(=O)C(C)(C)[C@@H]5CC[C@]43C)[C@@H]2C1 [Compound T59] | 12.08 ± 2.93^d fold | 49.5 ± 13.8 nM | – | – | –
CN1CCN([C@]23CCC(C)(C)C[C@H]2[C@H]2C(=O)C=C4[C@@]5(C)C=C(C#N)C(=O)C(C)(C)[C@@H]5CC[C@@]4(C)[C@]2(C)CC3)CC1=O [Compound T61] | 3.18 ± 0.67^d fold | 13.2 ± 3.78 nM | – | – | –
CC1(C)CC[C@]2(NC(=O)C3CC3)CC[C@]3(C)[C@H](C(=O)C=C4[C@@]5(C)C=C(C#N)C(=O)C(C)(C)[C@@H]5CC[C@]43C)[C@@H]2C1 [Compound T68] | 6.51 ± 1.38^i fold | – | – | – | 11.4 ± 5.17 nM
CN1CC(=O)N([C@]23CCC(C)(C)C[C@H]2[C@H]2C(=O)C=C4[C@@]5(C)C=C(C#N)C(=O)C(C)(C)[C@@H]5CC[C@@]4(C)[C@]2(C)CC3)CC1=O [Compound T54] | 16.18 ± 3.50^e fold | 64.6 ± 19.7 nM | – | – | –

From patent publication US20230111914A1, “SYNTHETIC TRITERPENOIDS WITH NITROGEN-BASED SUBSTITUENTS AT C-17 AND METHODS OF USE THEREOF” (REATA PHARMACEUTICALS, INC., priority 2019, published 2023)
